On the set-up of data set [1]: method as in PMID 15489122. Conditions: in humans; cited from earlier work.
Data set [2] in a line: 1H NMR of reaction with N-acetyl-L-cysteine methyl ester. Conditions: room temperature. How it is done: NMR analysis was performed at 25 °C and recorded in δ units relative to deuterated solvent as an internal reference using a 400 MHz NMR instrument (Bruker). Deuterated phosphate-buffered saline (d-PBS) was prepared at a concentration of 50 mM (D2O + H2O, 1:1, v/v). Levosimendan (50 mg, […], 1 equivalent) reacted with N-acetyl-L-cysteine methyl ester (38 mg, […], 1.2 equivalent) in 10 mL of d-PBS/DMSO-d6 (1:1, v/v) at room temperature, and the reaction was checked at various time points. For the reversibility study, the reaction mixture was diluted ten times with d-PBS/DMSO-d6 (1:1, v/v) and monitored at room temperature.

The test system of another data set is tau cysteines. The experiment in a line: Covalent binding to tau (14C autoradiography, MALDI-TOF of R1-R4 peptides). Conditions: repeat domain:levosimendan 1:10, RT. How it is done:
TauK18 (1 mg/mL, 72 μM) was incubated with ^14C-levosimendan (720 μM) in PBS containing 5% DMSO at RT for 2 h. Then, the mixture was separated on a 15% SDS–PAGE gel under nonreducing conditions and stained with Coomassie blue. For autoradiography, the SDS–PAGE gel was transferred to a PVDF membrane and scanned by Typhoon FLA 7000 IP (GE Healthcare).
Each repeat domain (R1, R2, R3, R4, R2-C291S or R3-C322S, 150 μM) was incubated with levosimendan (molar ratio 1:10 of a tau repeat domain: levosimendan) at RT for 37 h. The samples were mixed with matrix solution (10 mg mL^−1 sinapinic acid in 0.1% (v/v) trifluoroacetic acid/CAN) at a ratio of 1:1. The mixtures were directly spotted onto the MALDI target and dried. Mass spectra were acquired in reflection/linear positive ion mode in the m/z range of 2000–100,000 using an Ultraflex III TOF/TOF mass spectrometer controlled by Flex Control 3.0 (Bruker Daltonics). The default operating conditions were as follows: ion source 1, 25.0 kV; ion source 2, 23.0 kV; lens voltage, 6.0 kV; laser repetition rate = 100 Hz. All spectra were generated automatically in the instrument software and based on averaging 1000 shots from 10 nonoverlapping positions (100 shots/position).

The next data set has as its target T1, tauK18 (Homo sapiens, UniProt P10636).
T1 construct: under in vitro conditions using a purified tauK18 fragment; 6xHis; made in house; host or cells: E. coli BL21 (DE3)
Nature of the data set: Transmission electron microscopy of tau filaments and oligomers. It is filed as biochemical. Conditions: tauK18 preaggregates; DMSO control 13.7 ± 5.2 nm. How it is done:
Samples were placed onto carbon-coated copper electron microscopy grids and then negatively stained with 2% (w/v) aqueous uranyl acetate for 1 min. To image the tau filaments (Fig. 3d), the grids were observed using a JEM-1011 transmission electron microscope (JEOL) at an acceleration voltage of 80 kV. To image the tau filaments and oligomers (Figs. 3f and 4e), the grids were observed using a Tecni G2 F20 transmission electron microscope (FEI) at an acceleration voltage of 120 kV. Eight to twelve random images from each experimental condition were captured by the operator as a blind observer.

For a further data set, the system named is HEK293 Tau-BiFC cells. The experiment in a line: Cell viability of tau-BiFC cells (number of nuclei). In kind it is cell-based, human. Conditions: 48 h of treatment. How it is done: HEK293 Tau-BiFC cells were maintained in Dulbecco’s modified Eagle medium (DMEM) supplemented with 10% fetal bovine serum (FBS), 100 units/mL penicillin, 100 µg/mL streptomycin and 100 µg/mL Geneticin (G418) in a humidified atmosphere containing 5% CO2 at 37 °C. Tau-BiFC cells were activated by treatment with FK (30 μM) or tauK18^P301L (5 μg/mL).
For screening of FDA-approved & Passed Phase I Drug Library, tau-BiFC cells were plated on µ-clear 384-well plates. The next day, the cells were cotreated with forskolin and 1,018 library compounds at a concentration of 10 µM. MB and LMTM (3 µM) were used as positive controls. After 46 h, nuclei were counterstained with Hoechst (Invitrogen). BiFC (λex = 460–490 nm and λem = 500–550 nm) and Hoechst (λex = 355–385 nm and λem = 430–500 nm) fluorescence images were acquired automatically by using Operetta® (PerkinElmer). BiFC fluorescence intensity and the number of nuclei were quantified using Harmony 3.1 software (PerkinElmer). Integrated tau-BiFC intensity represents the area of selected cell X mean fluorescence intensity. The means and standard deviations (S.D.) of BiFC fluorescence intensities and the number of nuclei were plotted using GraphPad Prism.

T1 sequence (P10636 561-685 limits assumed): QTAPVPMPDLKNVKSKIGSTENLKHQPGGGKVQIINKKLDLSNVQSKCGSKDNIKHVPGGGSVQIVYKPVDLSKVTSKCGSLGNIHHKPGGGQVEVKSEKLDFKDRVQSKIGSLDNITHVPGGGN

As for `C[C@@H]1CC(=O)NN=C1c1ccc(NN=C(C#N)C#N)cc1` [Levosimendan], the “Portion of levosimendan metabolized to OR-1855 and OR-1896” value in data set [1] is 5%. Also, in data set [2] (reaction mixture diluted ten times), the “Time to almost complete restoration of levosimendan upon ten-fold dilution” value is listed as 5 days. Also, in data set [2] (with N-acetyl-L-cysteine methyl ester), the “Time to complete formation of the levosimendan-cysteine conjugate” value is listed as ≤ 2 h. In addition, in the data set on tau cysteines, the “Covalent attachment to tau repeat domains (MALDI-mass spectrometry)” value was “covalently attached to the R2 and R3 domains”. In addition, the “Diameter (width) of tau particles (TEM)” value on tauK18 is 8.8 ± 2.0 nm.

In the case of `CN(C)c1ccc2c(c1)Sc1cc(N(C)C)ccc1N2.CS(=O)(=O)O.CS(=O)(=O)O` [LMTM, leucomethylene blue mesylate], the GI50 in the data set on HEK293 Tau-BiFC cells (Tau-BiFC^ON by forskolin (30 μM)) is 6.4 ± 0.3 µM; with HEK293 Tau-BiFC cells (Tau-BiFC^ON by tauK18^P301L (5 μg/mL)), 6.6 ± 0.3 µM.

Broadly, the GI50 is the concentration that inhibits growth by half.

(Values after article PMC10073126, “Levosimendan inhibits disulfide tau oligomerization and ameliorates tau pathology in Tau^P301L-BiFC mice” (Experimental & Molecular Medicine, 2023).)
